Results from PubChem BioAssay AID256 (DTP/NCI, 2004).
Where “and” joins values, the source holds several entries; their conditions need not be identical. Equal entries are not always repeated. Inconclusive results and toxic doses are left out. How the source made its calls: active means survival T/C of 150% or more; inactive means T/C below 125% in these data.

Tested on: CD2F1 mice, L1210 leukemia ip, survival T/C
Experiment: NCI In Vivo Anticancer Drug Screen. Data for tumor model L1210 Leukemia (intraperitoneal) in CD2F1 (CDF1) mice
Conditions: higher = longer survival
How it was run: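 Ratio T/C, where T is the treated-group value and C the vehicle-dosed control value, from mice implanted with a transplantable tumor.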

[1] = endpoint: mean survival time, dose: 75.0 mg/kg/injection, schedule: Q01DX009 (ip), vehicle: Klucel (hydroxypropylcellulose) (HPC)
[2] = endpoint: mean survival time, dose: 150.0 mg/kg/injection, schedule: Q01DX009 (ip), vehicle: Klucel (hydroxypropylcellulose) (HPC)
[3] = endpoint: mean survival time, dose: 300.0 mg/kg/injection, schedule: Q01DX009 (ip), vehicle: Klucel (hydroxypropylcellulose) (HPC)
[4] = endpoint: mean survival time, dose: 12.5 mg/kg/injection, schedule: Q01DX005 (ip), vehicle: distilled water + Tween-80
[5] = endpoint: mean survival time, dose: 25.0 mg/kg/injection, schedule: Q01DX005 (ip), vehicle: distilled water + Tween-80
[6] = endpoint: mean survival time, dose: 50.0 mg/kg/injection, schedule: Q01DX005 (ip), vehicle: distilled water + Tween-80
[7] = endpoint: mean survival time, dose: 100.0 mg/kg/injection, schedule: Q01DX005 (ip), vehicle: distilled water + Tween-80
[8] = endpoint: mean survival time, dose: 200.0 mg/kg/injection, schedule: Q01DX005 (ip), vehicle: distilled water + Tween-80
[9] = endpoint: mean survival time, dose: 100.0 mg/kg/injection, schedule: Q04DX003 (ip), vehicle: Klucel (hydroxypropylcellulose) (HPC)
[10] = endpoint: mean survival time, dose: 100.0 mg/kg/injection, schedule: Q01DX001 (ip), vehicle: saline with Tween-80
[11] = endpoint: mean survival time, dose: 200.0 mg/kg/injection, schedule: Q01DX001 (ip), vehicle: saline with Tween-80
[12] = endpoint: mean survival time, dose: 400.0 mg/kg/injection, schedule: Q01DX001 (ip), vehicle: saline with Tween-80
[13] = endpoint: mean survival time, dose: 100.0 mg/kg/injection, schedule: Q01DX009 (ip), vehicle: saline with Tween-80
[14] = endpoint: mean survival time, dose: 200.0 mg/kg/injection, schedule: Q01DX009 (ip), vehicle: saline with Tween-80
[15] = endpoint: mean survival time, dose: 400.0 mg/kg/injection, schedule: Q01DX009 (ip), vehicle: saline with Tween-80
[16] = endpoint: mean survival time, dose: 200.0 mg/kg/injection, schedule: Q04DX003 (ip), vehicle: saline with Tween-80
[17] = endpoint: mean survival time, dose: 400.0 mg/kg/injection, schedule: Q04DX003 (ip), vehicle: saline with Tween-80
[18] = endpoint: mean survival time, dose: 100.0 mg/kg/injection, schedule: Q04DX003 (ip), vehicle: saline with Tween-80
[19] = endpoint: mean survival time, dose: 50.0 mg/kg/injection, schedule: Q01DX009 (ip), vehicle: saline with Tween-80

Measured: T/C

CC1CC2CC(=O)CCC2(C)C2CCC3(C)C(O)CCC3C12 (configuration not stated)
inactive: endpoint: mean survival time, dose: 18.75 mg/kg/injection, schedule: Q01DX009 (ip), vehicle: Klucel (hydroxypropylcellulose) (HPC) 100 % of control | endpoint: mean survival time, dose: 37.5 mg/kg/injection, schedule: Q01DX009 (ip), vehicle: Klucel (hydroxypropylcellulose) (HPC) 100 % of control | [1] 100 % of control | [2] 95 % of control | [3] 95 % of control

OCC1OC(n2cnc3c(Nc4ccccc4)ncnc32)C(O)C1O (configuration not stated)
inactive: [4] 102 % of control | [5] 100 % of control | [6] 100 % of control | [7] 94 % of control | [8] 98 % of control

O=C(CCCN1CCC(O)(c2cccc(C(F)(F)F)c2)CC1)c1ccc(F)cc1
inactive: endpoint: mean survival time, dose: 12.5 mg/kg/injection, schedule: Q04DX003 (ip), vehicle: Klucel (hydroxypropylcellulose) (HPC) 95 % of control | endpoint: mean survival time, dose: 25.0 mg/kg/injection, schedule: Q04DX003 (ip), vehicle: Klucel (hydroxypropylcellulose) (HPC) 92 % of control | endpoint: mean survival time, dose: 50.0 mg/kg/injection, schedule: Q04DX003 (ip), vehicle: Klucel (hydroxypropylcellulose) (HPC) 98 % of control | [9] 97 % of control

COc1cc2c(cc1OC)C(OC)N(C)c1c-2ccc2cc3c(cc12)OCO3 (configuration not stated)
inactive: endpoint: mean survival time, dose: 3.13 mg/kg/injection, schedule: Q01DX009 (ip), vehicle: water 117 % of control | endpoint: mean survival time, dose: 6.25 mg/kg/injection, schedule: Q01DX009 (ip), vehicle: water 121 % of control | endpoint: mean survival time, dose: 12.5 mg/kg/injection, schedule: Q01DX009 (ip), vehicle: water 123 % of control | endpoint: mean survival time, dose: 25.0 mg/kg/injection, schedule: Q01DX009 (ip), vehicle: water 121 % of control

CN(c1ccccc1)c1ccc(N=Nc2nc3ccccc3s2)cc1
inactive: [10] 95 % of control | [11] 98 % of control | [12] 87 % of control

Clc1ccc(C(c2ccccc2Cl)C(Cl)Cl)cc1 (configuration not stated)
inactive: endpoint: mean survival time, dose: 62.5 mg/kg/injection, schedule: Q01DX009 (sc), vehicle: steriod suspending solution 95 % of control and 106 % of control | endpoint: mean survival time, dose: 125.0 mg/kg/injection, schedule: Q01DX009 (sc), vehicle: steriod suspending solution 98 % of control and 102 % of control | endpoint: mean survival time, dose: 250.0 mg/kg/injection, schedule: Q01DX009 (sc), vehicle: steriod suspending solution 95 % of control and 105 % of control | endpoint: mean survival time, dose: 500.0 mg/kg/injection, schedule: Q01DX009 (sc), vehicle: steriod suspending solution 101 % of control and 106 % of control

CCOC(=O)C(CC)C(=O)OCC
inactive: [13] 94 % of control | [14] 93 % of control | [15] 94 % of control

Cc1cc(C)c(C(C)(C)O)c(C)c1
inactive: [16] 98 % of control | [17] 106 % of control

CC(=O)OC(C(=O)NC(CC(C)C)C(=O)O)c1ccccc1 (configuration not stated)
inactive: [18] 98 % of control | [16] 95 % of control | [17] 103 % of control

Cc1ccc(S(=O)[O-])cc1.[C-]#[O+].[C-]#[O+].[Fe+6].[c-]1[c-][c-][cH-][c-]1
inactive: endpoint: mean survival time, dose: 50.0 mg/kg/injection, schedule: Q04DX002 (ip), vehicle: saline with Tween-80 97 % of control | endpoint: mean survival time, dose: 200.0 mg/kg/injection, schedule: Q04DX002 (ip), vehicle: saline with Tween-80 108 % of control

c1ccc(C(Nc2ncnc3nncnc23)c2ccccc2)cc1
inactive: endpoint: mean survival time, dose: 75.0 mg/kg/injection, schedule: Q01DX001 (ip), vehicle: other 94 % of control

CCn1c(N)c(N)c(=O)[nH]c1=S
inactive: [13] 94 % of control | [14] 98 % of control | [15] 88 % of control

COc1ccc(/C=C/C(=O)c2ccc(Cl)cc2)c(OC)c1
inactive: endpoint: mean survival time, dose: 100.0 mg/kg/injection, schedule: Q04DX003 (ip), vehicle: other 101 % of control | endpoint: mean survival time, dose: 200.0 mg/kg/injection, schedule: Q04DX003 (ip), vehicle: other 95 % of control | endpoint: mean survival time, dose: 400.0 mg/kg/injection, schedule: Q04DX003 (ip), vehicle: other 93 % of control

N#CC1C(=N)Cc2ccccc2-c2ccccc21 (configuration not stated)
inactive: [13] 96 % of control | [18] 108 % of control | [14] 93 % of control | [16] 101 % of control | [15] 106 % of control | [17] 101 % of control

CCc1ccccc1NC(=O)c1cccc(Cl)c1
inactive: [13] 98 % of control | [18] 94 % of control | [14] 91 % of control | [16] 96 % of control | [15] 96 % of control | [17] 96 % of control

CC1C(c2ccccc2)OC(N2CCOCC2)C(C)(C)CN1C (configuration not stated)
inactive: endpoint: median survival time, dose: 50.0 mg/kg/injection, schedule: Q01DX009 (ip), vehicle: saline with Tween-80 100 % of control | endpoint: median survival time, dose: 100.0 mg/kg/injection, schedule: Q01DX009 (ip), vehicle: saline with Tween-80 102 % of control | endpoint: median survival time, dose: 200.0 mg/kg/injection, schedule: Q01DX009 (ip), vehicle: saline with Tween-80 102 % of control | endpoint: median survival time, dose: 400.0 mg/kg/injection, schedule: Q01DX009 (ip), vehicle: saline with Tween-80 97 % of control

COc1ccc(N=C2C=CC(=O)O2)cc1
inactive: endpoint: mean survival time, dose: 25.0 mg/kg/injection, schedule: Q01DX009 (ip), vehicle: saline with Tween-80 95 % of control | [19] 100 % of control | [13] 97 % of control | [18] 101 % of control

C=CCNC(=S)N/N=C\c1cc(OC)c(OC)c(OC)c1
inactive: [13] 93 % of control | [14] 97 % of control | [15] 106 % of control

Nc1nc2c(ncn2-c2ccccc2F)c(=O)[nH]1
inactive: endpoint: mean survival time, dose: 25.0 mg/kg/injection, schedule: Q01DX001 (ip), vehicle: saline with Tween-80 102 % of control | endpoint: mean survival time, dose: 50.0 mg/kg/injection, schedule: Q01DX001 (ip), vehicle: saline with Tween-80 106 % of control | [10] 94 % of control and 98 % of control

C=CCC(Cc1ccccc1)C1=NC(C)(C)CC(C)O1 (configuration not stated)
inactive: [19] 101 % of control | [10] 97 % of control | [13] 97 % of control | [11] 103 % of control | [14] 94 % of control

CCCCCCCCCC[n+]1cccc(C(N)=O)c1
inactive: endpoint: mean survival time, dose: 5.0 mg/kg/injection, schedule: Q01DX009 (ip), vehicle: saline with Tween-80 97 % of control | endpoint: mean survival time, dose: 10.0 mg/kg/injection, schedule: Q01DX009 (ip), vehicle: saline with Tween-80 97 % of control | endpoint: mean survival time, dose: 20.0 mg/kg/injection, schedule: Q01DX009 (ip), vehicle: saline with Tween-80 100 % of control

CC1(C)C(=O)OC(=O)C(C)(Br)C1(C)C (configuration not stated)
inactive: [10] 104 % of control | [11] 96 % of control | [12] 101 % of control

CC(C)(c1ccc(Nc2ccccc2)cc1)c1ccc(Nc2ccccc2)cc1
inactive: [9] 96 % of control | endpoint: mean survival time, dose: 200.0 mg/kg/injection, schedule: Q04DX003 (ip), vehicle: Klucel (hydroxypropylcellulose) (HPC) 96 % of control | endpoint: mean survival time, dose: 400.0 mg/kg/injection, schedule: Q04DX003 (ip), vehicle: Klucel (hydroxypropylcellulose) (HPC) 92 % of control

Cc1cc2nc(Cc3nc4cc(C)c(C)cc4[nH]3)[nH]c2cc1C
inactive: [19] 93 % of control | [13] 87 % of control | [14] 88 % of control

CCCC/C=C/C(C)(C)O
inactive: [19] 107 % of control | [13] 103 % of control | [14] 107 % of control

S=C1NCCS1
inactive: [1] 95 % of control | [2] 96 % of control | [3] 101 % of control

CC1=C(/C=C/C(C)=C/C=C/C(C)=C/C(=O)Nc2ccc(O)cc2)C(C)(C)CCC1
inactive: endpoint: median survival time, dose: 12.5 mg/kg/injection, schedule: Q01DX005 (ip), vehicle: saline with Tween-80 98 % of control | endpoint: median survival time, dose: 25.0 mg/kg/injection, schedule: Q01DX005 (ip), vehicle: saline with Tween-80 101 % of control | endpoint: median survival time, dose: 50.0 mg/kg/injection, schedule: Q01DX005 (ip), vehicle: saline with Tween-80 98 % of control | endpoint: median survival time, dose: 100.0 mg/kg/injection, schedule: Q01DX005 (ip), vehicle: saline with Tween-80 92 % of control | endpoint: median survival time, dose: 200.0 mg/kg/injection, schedule: Q01DX005 (ip), vehicle: saline with Tween-80 96 % of control

O=C1C=CC(=O)N1c1ccc(F)cc1 (tested in a mixture with another compound)
inactive: [19] 96 % of control | [13] 91 % of control | [14] 86 % of control

O=P(NC1CCCCC1)(NC1CCCCC1)NC1CCCCC1
inactive: endpoint: mean survival time, dose: 50.0 mg/kg/injection, schedule: Q04DX003 (ip), vehicle: saline with Tween-80 93 % of control | [18] 90 % of control | [16] 91 % of control

Nc1ncnc2c1ncn2C1OC(COP(N)(N)=O)C(O)C1O (configuration not stated)
inactive: [4] 105 % of control | [5] 98 % of control | [6] 96 % of control | [7] 102 % of control | [8] 96 % of control
